“Also recorded” adds a separate entry of the source.
What was measured:
Format in all cases: cell-based, human
[1] = test system: ENS
[2] = test system: muscarinic receptor; assay: Ex vivo isometric force contraction of muscle strips from transplanted hAGO +SM +ENS in an organ bath
[3] = test system: ENCCs; assay: Expression of BMP ligands in ENCC culture (qRT-PCR); conditions: ENCC culture treated with NOG; FIG. 15B
Experimental: (§1) One candidate pathway was BMP signaling, which is known to promote posterior fate in the gastrointestinal junction. Analysis of ENCCs show high levels of expression of both BMP4 and BMP7 (FIG. 15A). To functionally investigate if BMP activity might mediate the ability of ENCCs to promote a Brunner's gland fate, ENCCs were recombined with hAGO at day 6 and then organoids were cultured with the BMP inhibitor Noggin (NOG) from day 6-9, along with RA, which is a component of the normal hAGO protocol. None of the grafts (0 out of 27) had Brunner's gland epithelium following 3 days of Noggin treatment as compared to hAGOs +ENCCs added at day 9 not treated with NOG (5 out of 21 grafts). […]
RNA isolation and quantitative real-time PCR (qRT-PCR): Spheroids and organoids were harvested in RAI Lysis Buffer and β-mercapethanol and stored at −80° C. until total RNA was isolated using NucleoSpin RNA Isolation Kit (Macherey-Nagel) according to manufacturers' instructions. Complementary DNA (cDNA) was reverse transcribed from 116 ng of RNA using a SuperScript VILO cDNA Synthesis Kit (Invitrogen). qRT-PCR was performed using a QuantiTect SYBR Green PCR Kit (Qiagen) in MicroAmp EnduraPlate Optical 96-Well Fast Reaction Plates (Applied Biosystems) and run on a QuantStudio 6 Real-Time PCR Detection System (Applied Biosystems). […]

[4] = test system: hAGOs +ENCCs; assay: Brunner's gland epithelium in grafts of hAGOs recombined with ENCCs and transplanted into mice; conditions: ENCCs recombined at day 6, Noggin day 6-9 (3 days) along with RA; compared with 5 out of 21 grafts not treated
Experimental: as §1
Recombination and additional spheroid patterning: Single cell suspensions of mesenchymal cells and ENCCs were counted and added to foregut spheroids at an approximate ratio of 1,000 ENCCs and 2,500 mesenchyme cells per spheroid. […]
In vivo transplantation of hAGOs and hFGOs: hAGO, hFGO, hAGO +ENS, hAGO +SM +ENS, hAGO +SM +ENS, and hFGO +SM +ENS were all ectopically transplanted into the kidney capsule of NSG mice. […] Engrafted organoids were harvested 6-15 weeks after transplantation and analyzed for neuroglial, epithelial, and mesenchymal maturation.

**Q.** `NC1=N[C@H](O)[C@H]2[C@H]3O[C@]4(O)O[C@@H]([C@@H](O)[C@@]2(N1)[C@@H]4O)[C@]3(O)CO` [tetrodotoxin] was tested. Which “EFS-stimulated contractile activity (change in AUC)” value [1] did it give?
**A.** abolished the ability of EFS to stimulate contractile activity; also recorded: abrogating EFS-mediated contractions

**Q.** For `CC(C[N+](C)(C)C)OC(N)=O` (stereo not drawn) [bethanechol, Carbamyl-β-methylcholine chloride], which “contractility (smooth muscle force contraction), dose response” value ([2]; 1 nM to 10 mM at 2 min intervals, tissue strips of transplanted hAGO +SM +ENS, FIG. 4C) is on record?
**A.** increased in response to bethanechol in a dose-dependent manner

**Q.** And the “normalized mean maximal tension” value ([2]; bethanechol dose response before scopolamine, normalized to muscle strip mass, n=3, FIG. 4D)?
**A.** 236.9 g/g

**Q.** `CN1[C@@H]2C[C@@H](OC(=O)[C@H](CO)c3ccccc3)C[C@H]1[C@@H]1O[C@@H]12` [scopolamine] was tested. Which “reversal of contractions / muscle relaxation” value [2] did it give?
**A.** contractions were able to be reversed and muscle relaxation induced

B1: Noggin: BMP inhibitor Noggin (NOG) (protein, UniProt Q13253 28-232, looked up)
Noggin: QHYLHIRPAPSDNLPLVDLIEHPDPIFDPKEKDLNETLLRSLLGGHYDPGFMATSPPEDRPGGGGGAAGGAEDLAELDQLLRQRPSGAMPSEIKGLEFSEGLAQGKKQRLSKKLRRKLQMWLWSQTFCPVLYAWNDLGSRFWPRYVKVGSCFSKRSCSVPEGMVCKPSKSVHLTVLRWRCQRRGGQRCGWIPIQYPIISECKCSC
**Q.** For B1, which “levels of BMP4 and BMP7 expression” value [3] is on record?
**A.** significantly reduced levels of both BMP4 and 7

**Q.** What about the “grafts with Brunner's gland epithelium” value [4] of the same molecule?
**A.** 0 out of 27

Reference: patent US20240318145A1, “STRUCTURALLY COMPLETE ORGANOIDS” (Children's Hospital Medical Center, priority 2021, published 2024)
